Data from patent publication US6943149B2, “Benzimidazolone peptidomimetics as thrombin receptor antagonists” (Ortho McNeil Pharmaceutical, Inc., priority 1999, dated 2005).

Assays:
[1] = tested on: gel-filtered platelets (thrombin-stimulated aggregation); experiment: Thrombin-induced gel-filtered platelet aggregation assay; type: cell-based; details: human platelets, read-out: IC50 (μM) Thr GFP Aggr
Procedure: In Vitro Inhibition of Thrombin-Induced Gel-Filtered Platelet Aggregation Assay
The percentage of platelet aggregation is calculated as an increase in light transmission of compound-treated platelet concentrate vs. control-treated platelet concentrate. Human blood is obtained from drug free, normal donors in tubes containing 0.13M sodium citrate. Platelet rich plasma (PRP) is collected by centrifugation of whole blood at 200×g for 10 min at 25° C. The PRP (5 mL) is gel filtered through Sepharose 2B (bed volume 50 mL), and the platelet count is adjusted to 2×10^7 platelets per sample. The following constituents are added to a siliconized cuvette: concentrated platelet filtrate and Tyrode's buffer (0.14M NaCl, 0.0027M KCl, 0.012M NaHCO3, 0.76 mM Na2HPO4, 0.0055M glucose, 2 mg/mL BSA and 5.0 mM HEPES @ pH 7.4) in an amount equal to 350 μL, 50 μL of 20 mM calcium and 50 μL of the test compound. Aggregation is monitored in a BIODATA aggregometer for the 3 min following the addition of agonist (thrombin 50 μL of 1 unit/mL).

[2] = target: T1, Thrombin receptor (PAR-1) (Homo sapiens, UniProt P25116); experiment: Thrombin receptor (PAR-1) binding assay; details: CHRF membranes; tritiated 721-40 radioligand; read-out: IC50 (μM) Thr recptr Bdg
T1 construct: CHRF membranes (Jones, Biochim. Biophys. Acta 1992, 1136, 272) are thawed from −70° C; endogenous in cells; host or cells: CHRF cell membranes
T1 sequence (P25116 22-425): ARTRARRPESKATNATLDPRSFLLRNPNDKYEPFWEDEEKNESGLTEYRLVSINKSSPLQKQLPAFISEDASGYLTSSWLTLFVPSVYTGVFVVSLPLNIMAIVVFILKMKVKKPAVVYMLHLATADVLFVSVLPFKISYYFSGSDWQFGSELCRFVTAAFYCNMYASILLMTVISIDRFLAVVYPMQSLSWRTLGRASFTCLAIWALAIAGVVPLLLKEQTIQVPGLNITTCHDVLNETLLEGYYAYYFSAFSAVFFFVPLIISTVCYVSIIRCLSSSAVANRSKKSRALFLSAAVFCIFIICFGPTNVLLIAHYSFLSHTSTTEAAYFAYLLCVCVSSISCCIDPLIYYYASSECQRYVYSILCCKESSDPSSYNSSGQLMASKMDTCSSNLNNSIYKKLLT
Procedure: In Vitro Thrombin Receptor Binding Assay
CHRF membranes (Jones, Biochim. Biophys. Acta 1992, 1136, 272) are thawed from −70° C., centrifuged at maximum speed for 5 min, washed twice with binding buffer (50 mM HEPES containing 5 mM MgCl2 and 0.1% BSA), and re-suspended in binding buffer ([…]). 100 μL of membranes are added to the 24-Wallac plates and delivered to the Tomtech apparatus. In a typical experiment, 6 μL of samples (from a 125 μg/mL intermediary plate, 20% DMSO) and 44 μL buffer are delivered to the plates (final conc. of compounds is 3.7 μg/mL, 0.6% DMSO). Similarly, 6 μL 20% DMSO and 44 μL buffer are delivered to both column 1 (NSB) and column 12 (TB). 10 μL Ser-pFPhe-Har-Leu-Har-Lys-Tyr-NH2, SEQ ID NO 1, (721-40; 500 μM in deionized water) is added to column 1. 50 μL tritiated 721-40 (specific activity 46 Ci/mmol) is added to all the wells. The plates are mixed well for 20 seconds, incubated for 30 min, and then harvested with 10 mM HEPES/138 mM NaCl using the Skatron harvester. The filters (GF/C Brandel FPXLR 296) are presoaked 3 h in 0.5% polyethylenimine in HEPES/0.1M N-acetylglucosamine) are set in saran wrap and dried for 3 min in the microwave, and placed in sample bags (Wallac 1450-432). 4.5 mL scintillation fluid (Wallac, Betaplate Scint 1205-440) is added. The bags are sealed, placed in filter cassettes (Wallac 1450-104), and analyzed on the microbeta counter.

| SMILES | IC50 [1] | IC50 [2] |
| --- | --- | --- |
| NCC[C@H](NC(=O)[C@H](Cc1ccc(F)c(F)c1)NC(=O)Nc1ccc2c(c1)n(Cc1c(Cl)cccc1Cl)c(=O)n2CCN1CCCC1)C(=O)NCc1ccccc1 [Compound 1] | 0.39 µM | 1.6 µM |
| Cc1ccccc1Cn1c(=O)n(CCN2CCCC2)c2cc(NC(=O)N[C@@H](Cc3ccc(F)c(F)c3)C(=O)N[C@@H](CCN)C(=O)NCc3ccccc3)ccc21 [Compound 2] | 7 µM | 3 µM |
| Cc1ccccc1Cn1c(=O)n(CCN(C)C)c2cc(NC(=O)N[C@@H](Cc3ccc(F)c(F)c3)C(=O)N[C@@H](CCN)C(=O)NCc3ccccc3)ccc21 [Compound 3] | 7.7 µM | 1.9 µM |
| Cc1ccccc1Cn1c(=O)n(CCN(C)C)c2ccc(NC(=O)N[C@@H](Cc3ccc(F)c(F)c3)C(=O)N[C@@H](CCN)C(=O)NCc3ccccc3)cc21 [Compound 4] | 0.23 µM | 0.7 µM |
| Cc1ccccc1Cn1c(=O)n(CCN2CCCC2)c2ccc(NC(=O)N[C@@H](Cc3ccc(F)c(F)c3)C(=O)N[C@@H](CCN)C(=O)NCc3ccccc3)cc21 [Compound 5] | 0.28 µM | 0.4 µM |
| NCC[C@H](NC(=O)[C@H](Cc1ccc(F)c(F)c1)NC(=O)Nc1ccc2c(c1)n(Cc1ccc(F)cc1)c(=O)n2CCN1CCCC1)C(=O)NCc1ccccc1 [Compound 6] | 6 µM | 0.6 µM |
| NCC[C@H](NC(=O)[C@H](Cc1ccc(F)c(F)c1)NC(=O)Nc1ccc2c(c1)n(CCN1CCCC1)c(=O)n2Cc1c(Cl)cccc1Cl)C(=O)NCc1ccccc1 [Compound 7] | 5.5 µM | 1.7 µM |
| NCCNC(=O)[C@H](Cc1ccncc1)NC(=O)[C@H](Cc1ccc(F)c(F)c1)NC(=O)Nc1ccc2c(c1)n(Cc1ccc(F)cc1)c(=O)n2CCN1CCCC1 [Compound 8] | 5.8 µM | 0.5 µM |
